{"source": "patent US20150258043A1", "about": "“USE OF SPHINGOID LONG CHAIN BASES AND THEIR ANALOGS IN TREATING AND PREVENTING BACTERIAL INFECTIONS” (YEDA RESEARCH AND DEVELOPMENT CO. LTD., priority 2012, published 2015)", "key": {"[1]": {"system": "P. aeruginosa strains 762, PA14 and ATCC 27853", "test": "Pulmonary P. aeruginosa infection of CF and CerS2 null mice, inhalation treatment (bacteria in lung, sickness score)", "type": "in vivo, mouse", "details": "CF mice; C16-ceramide and sphingosine at a 1:1 molar ratio, 1 h before infection, strain 762", "method": "(A,B) The number of bacteria in the lungs and the overall sickness score (C,D) of WT, CerS2 null and CF mice 3-4 h after intranasal infection with 1×10^8 CFU of P. aeruginosa strains 762 (A,C) and CF mice with strains PA14 and ATCC 27853. Mice were inhaled with 0.9% NaCl or acid ceramidase 1 h prior (b.i.) to infection, or with sphingosine or FTY720 1 h before (b.i.) or 1 h after (a.i.) infection. Sickness score 4, severely affected (unresponsive animal); score 3 affected, (heavy breathing, low body temperature, ruffled fur) score 2, moderately affected (ruffled fur, heavy breathing); score 1, slightly affected (ruffled fur); score 0, unaffected (healthy appearance). Data are means±s.d., n=4.\nPulmonary infection of CF or CerS2 mice was achieved by intranasal application of P. aeruginosa strains 762, ATCC 27853 or PA14. Mice inhaled acid ceramidase, sphingosine, FTY720 or a combination of sphingosine and ceramide 1 hr before or after pulmonary infection. The number of bacteria in the lung was determined by culturing aliquots of lysed lungs on agar plates. Clinical symptoms of the infection were scored.\nInhalation was performed with a PARI Boy SX nebulizer (PARI GmbH, Starnberg, Germany). This nebulizer generates a fine aerosol mist by pumping the fluid with an air jet. The mice inhaled the aerosol via a mask that is part of an oral inhalation device for children (LL-Nebulizer); the mask was clipped at the sides to cover only the mouse's nose and the surrounding part of the face. […]\nP. aeruginosa were grown for 14 to 14.5 h on fresh tryptic soy agar (TSA) plates (Becton Dickinson Biosciences, Germany). […] The bacterial OD was determined, and the bacteria were diluted in prewarmed H/S to a concentration of 1×10^8 CFU per 20 μL. […]\nLungs were removed, homogenised and lysed for 10 min in 5 mg/ml saponin to release intracellular bacteria. […] Bacterial counts (CFU) were counted after 18 h."}, "P. aeruginosa strain 762": {"system": "P. aeruginosa strain 762", "test": "Incubation of bacteria with sphingosine and increasing C16-ceramide, CFU count", "type": "cell-based, Pseudomonas aeruginosa", "details": "in the presence of 10 μM sphingosine", "method": "FIGS. 4A-D. The ceramide/sphingosine ratio regulates P. aeruginosa growth. (A) Representative image of two independent experiments (left hand panel) after addition of Sytox green (1 μM) for 30 min in the absence or presence of 50 μM sphingosine or 50 μM C16-ceramide (C16-Cer) in 1% DMSO. Fluorescent and thus permeabilised bacteria were quantified (right hand panel). (B-D) The inhibitory effect of sphingosine on the growth of P. aeruginosa strain 762 is decreased in vitro and in vivo by C16-ceramide. (B) Bacteria were incubated with 10 μM sphingosine, and increasing concentrations of C16-ceramide, and growth was determined by counting colony forming unit (CFU) after 24 hrs growth on LB agar plates. Number of bacteria in the lung (C) and sickness score (D) of CF mice or WT mice inhaled with either sphingosine or a combination of sphingosine and C16-ceramide 1 h before (b.i.) with 10^8 P. aeruginosa CFU strain 762. Data are means±s.d., n=3 in (A,B) and n=4 in (C,D).\nThe in vitro effect of sphingosine in the presence or absence of ceramide was determined by incubation of early-logarithmic grown P. aeruginosa with sphingosine or ceramide or both in different ratios and measurement of surviving bacteria measuring the number of colony forming units 24 and 48 hrs after treatment.\nBacteria were incubated in vitro with sphingosine and increasing amounts of C16-ceramide. […]"}}}
{"smiles": "CCCCCCCCCCCCC/C=C/[C@@H](O)[C@H](CO)NC(=O)CCCCCCCCCCCCCCC", "note": "[C16-ceramide]", "values": [{"measurement": "effect of co-inhaled C16-ceramide on protection by sphingosine", "setting": "[1]", "value": "abrogated the protective effect of sphingosine and restored susceptibility to P. aeruginosa infection"}, {"measurement": "C16-ceramide concentration restoring bacterial growth", "setting": "P. aeruginosa strain 762", "value": "≥ 10", "unit": "µM"}]}
